Measurements as given in patent US11453677B2 (priority 2016, dated 2022).

Legend:
Experiment in all cases: cells
Format in all cases: cell-based
[1] = test system: influenza A virus minigenome (PB2, PB1, PA, NP) RNP_Alaska in 293T cells; conditions: HEK-293T, 48 h, read-out: RNP_Alaska EC50
[2] = test system: influenza virus minigenome (PB2, PB1, PA, NP) RNP_Hubei in 293T cells; conditions: unidentified influenza virus, HEK-293T, 48 h, read-out: RNP_Hubei EC50
[3] = test system: influenza A virus minigenome (PB2, PB1, PA, NP) RNP_CAL in 293T cells; conditions: HEK-293T, 48 h, read-out: RNP_CAL_EC50

Structure (SMILES)	EC50 [1]	EC50 [2]	EC50 [3]
O=c1cnn2c(c1O)-c1nccn1C[C@@H]2C(c1cccc(Cl)c1)c1cccc(Cl)c1 [Example 15, (S)-6-(bis(3-chlorophenyl)methyl)-11-hydroxy-5H-imidazo [2′,1′:3,4] pyrazino [1,2-b]pyridazin-10(6H)-one]	40 nM	19 nM	25 nM
O=c1ccn2c(c1O)-c1ncc(Br)n1C[C@@H]2C(c1ccccc1)c1ccccc1 [Example 7, (S)-6-benzhydryl-3-bromo-11-hydroxy-5H-imidazo[1,2-a]pyrido[2,1-c]pyrazin-10(6H)-one]	140 nM	160 nM	170 nM
O=c1ccn2c(c1O)-c1ncc(C3CC3)n1C[C@@H]2C(c1ccccc1)c1ccccc1 [Example 8, (S)-6-benzhydryl-3-cyclopropyl-11-hydroxy-5H-imidazo[1,2-a]pyrido[2,1-c]pyrazin-10(6H)-one]	490 nM	530 nM	150 nM
CC1(C)N(C(c2ccccc2)c2ccccc2)n2ccc(=O)c(O)c2-c2nccn21 [Example 75, 6-benzhydryl-11-hydroxy-5,5-dimethyl-5,6-dihydro-10H-imidazo[1,2-d]pyrido[2,1-f][1,2,4]triazin-10-one]	480 nM	400 nM	300 nM
O=c1cnn2c(c1O)-c1nccn1C[C@@H]2[C@@H](c1ccc(F)cc1)c1ccc(Cl)cc1 [Example 33, (S)-6-((S)-(4-chlorophenyl)(4-fluorophenyl)methyl)-11-hydroxy-5,6-dihydro-10H-imidazo[2′,1′:3,4]pyrazino[1,2-b]pyridazin-10-one]	87 nM	270 nM	110 nM
CS(=O)(=O)c1cccc([C@H](c2ccc(F)cc2)[C@H]2Cn3ccnc3-c3c(O)c(=O)cnn32)c1 [Example 42, (S)-6-((S)-(4-fluorophenyl)(3-(methylsulfonyl)phenyl)methyl)-11-hydroxy-5,6-dihydro-10H-imidazo[2′,1′:3,4]pyrazino[1,2-b]pyridazin-10-one]	3600 nM	3800 nM	2800 nM
O=c1ccn2c(c1O)-c1nccn1C(C1CC1)N2C(c1ccccc1)c1ccccc1 (stereo not shown) [Example 73, 6-benzhydryl-5-cyclopropyl-11-hydroxy-5,6-dihydro-10H-imidazo[1,2-d]pyrido[2,1-f][1,2,4]triazin-10-one]	390 nM		170 nM
N#Cc1cccc([C@H](c2ccc(F)cc2)[C@H]2Cn3ccnc3-c3c(O)c(=O)cnn32)c1 [Example 43, 3-((S)-(4-fluorophenyl)((S)-11-hydroxy-10-oxo-5,6-dihydro-10H-imidazo[2′,1′:3,4]pyrazino[1,2-b]pyridazin-6-yl)methyl)benzonitrile]	140 nM	170 nM	39 nM
C[C@@H](NCc1cnc2n1C[C@H](C(c1ccccc1)c1ccccc1)n1ccc(=O)c(O)c1-2)C(F)(F)F [Example 66, (S)-6-benzhydryl-11-hydroxy-3-((((R)-1,1,1-trifluoropropan-2-yl)amino)methyl)-5,6-dihydro-10H-imidazo[1,2-a]pyrido[2,1-c]pyrazin-10-one]	720 nM	630 nM	310 nM
Cc1cccc([C@H](c2ccc(F)cc2)[C@H]2Cn3ccnc3-c3c(O)c(=O)cnn32)c1 [Example 38, (S)-6-((S)-(4-fluorophenyl)(m-tolyl)methyl)-11-hydroxy-5,6-dihydro-10H-imidazo[2′,1′:3,4]pyrazino[1,2-b]pyridazin-10-one]	43 nM	97 nM	49 nM
O=c1ccn2c(c1O)-c1nccn1C(C1CC1)N2C1c2ccccc2CSc2ccccc21 (stereo not shown) [Example 76, 5-cyclopropyl-6-(6,11-dihydrodibenzo[b,e]thiepin-11-yl)-11-hydroxy-5,6-dihydro-10H-imidazo[1,2-d]pyrido[2,1-f][1,2,4]triazin-10-one]	430 nM	670 nM	160 nM
Cc1cc(F)ccc1[C@H](c1ccc(F)cc1)[C@H]1Cn2ccnc2-c2c(O)c(=O)cnn21 [Example 27, (S)-6-((S)-(4-fluoro-2-methylphenyl)(4-fluorophenyl)methyl)-11-hydroxy-5,6-dihydro-10H-imidazo[2′,1′:3,4]pyrazino[1,2-b]pyridazin-10-one]	50 nM	27 nM	50 nM
O=c1cnn2c(c1O)-c1nc(Br)c(Br)n1C[C@@H]2C(c1ccc(F)cc1)c1ccc(F)cc1 [Example 48, (S)-6-(bis(4-fluorophenyl)methyl)-2,3-dibromo-11-hydroxy-5,6-dihydro-10H-imidazo[2′,1′:3,4]pyrazino[1,2-b]pyridazin-10-one]	5000 nM	12000 nM	4300 nM
O=c1cnn2c(c1O)-c1nccn1CC2C(c1cccc(Cl)c1)c1cccc(Cl)c1 (stereo not shown) [Example 11, 6-(bis(3-chlorophenyl)methyl)-11-hydroxy-5H-imidazo[2′,1′:3,4]pyrazino[1,2-b]pyridazin-10(6H)-one]	160 nM	90 nM	80 nM
O=c1cnn2c(c1O)-c1nccn1CC2C(c1cccc(F)c1)c1cccc(F)c1 (stereo not shown) [Example 2, 6-(bis(3-fluorophenyl)methyl)-11-hydroxy-5,6-dihydro-10H-imidazo[2′,1′:3,4]pyrazino[1,2-b]pyridazin-10-one]	110 nM	90 nM	110 nM
CC(C)C(=O)Oc1c2n(ncc1=O)[C@@H](C(c1ccc(F)cc1)c1ccc(F)cc1)Cn1ccnc1-2 [Example 86, (S)-6-(bis(4-fluorophenyl)methyl)-10-oxo-5,6-dihydro-10H-imidazo[2′,1′:3,4]pyrazino[1,2-b]pyridazin-11-yl Isobutyrate]	30 nM	47 nM	21 nM
O=c1cnn2c(c1O)-c1nccn1CC2C(c1ccccc1)c1ccccc1 (stereo not shown) [Example 1, 6-Benzhydryl-11-hydroxy-5H-imidazo[2′,1′:3,4]pyrazino[1,2-b]pyridazin-10(6H)-one]	130 nM	110 nM	110 nM
CC(O)c1cnc2n1C[C@H](C(c1ccccc1)c1ccccc1)n1ccc(=O)c(O)c1-2 (stereo partly drawn) [Example 55, (6S)-6-benzhydryl-11-hydroxy-3-(1-hydroxyethyl)-5H-imidazo [1,2-a]pyrido[2,1-c]pyrazin-10(6H)-one]	2600 nM	6600 nM	1700 nM
Cc1ccccc1[C@H](c1ccc(F)cc1)[C@H]1Cn2ccnc2-c2c(O)c(=O)cnn21 [Example 40, (S)-6-((S)-(4-fluorophenyl)(o-tolyl)methyl)-11-hydroxy-5,6-dihydro-10H-imidazo[2′,1′:3,4]pyrazino[1,2-b]pyridazin-10-one]	20 nM	35 nM	32 nM
O=C(NC1CC1)c1cnc2n1C[C@H](C(c1ccccc1)c1ccccc1)n1ccc(=O)c(O)c1-2 [Example 70, (S)-6-benzhydryl-N-cyclopropyl-11-hydroxy-10-oxo-5,6-dihydro-10H-imidazo[1,2-a]pyrido[2,1-c]pyrazine-3-carboxamide]	6400 nM	12300 nM	1700 nM
CSc1cccc([C@H](c2ccc(F)cc2)[C@H]2Cn3ccnc3-c3c(O)c(=O)cnn32)c1 [Example 28, (S)-6-((S)-(4-fluorophenyl)(3-(methylthio)phenyl)methyl)-11-hydroxy-5,6-dihydro-10H-imidazo[2′,1′:3,4]pyrazino[1,2-b]pyridazin-10-one]	72 nM	78 nM	81 nM
COCc1cnc2n1C[C@H](C(c1ccccc1)c1ccccc1)n1ccc(=O)c(O)c1-2 [Example 56, (S)-6-benzhydryl-11-hydroxy-3-(methoxymethyl)-5H-imidazo [1,2-a]pyrido[2,1-c]pyrazin-10(6H)-one]	280 nM	270 nM	92 nM
O=c1cnn2c(c1O)-c1nccn1C[C@@H]2[C@@H](c1ccc(F)cc1)c1cccc(Cl)c1 [Example 31, (S)-6-((S)-(3-chlorophenyl)(4-fluorophenyl)methyl)-11-hydroxy-5,6-dihydro-10H-imidazo[2′,1′:3,4]pyrazino[1,2-b]pyridazin-10-one]	34 nM	64 nM	37 nM
O=c1cnn2c(c1O)-c1nccn1C[C@@H]2[C@H](c1cccc(F)c1)c1ccc(F)cc1Br [Example 36, (S)-6-((R)-(2-bromo-4-fluorophenyl)(3-fluorophenyl)methyl)-11-hydroxy-5,6-dihydro-10H-imidazo[2′,1′:3,4]pyrazino[1,2-b]pyridazin-10-one]	21 nM	63 nM	27 nM
O=c1cnn2c(c1O)-c1nccn1C[C@@H]2[C@@H](c1ccc(F)cc1)c1ccc(C(F)(F)F)cc1 [Example 32, (S)-6-((R)-(4-fluorophenyl)(4-(trifluoromethyl)phenyl)methyl)-11-hydroxy-5,6-dihydro-10H-imidazo[2′,1′:3,4]pyrazino[1,2-b]pyridazin-10-one]	280 nM	720 nM	250 nM
CCC1N(C(c2ccccc2)c2ccccc2)n2ccc(=O)c(O)c2-c2nccn21 (stereo not shown) [Example 78, 6-benzhydryl-5-ethyl-11-hydroxy-5,6-dihydro-10H-imidazo[1,2-d]pyrido[2,1-f][1,2,4]triazin-10-one]	250 nM	340 nM	180 nM
O=c1cnn2c(c1O)-c1ncnn1CC2C(c1ccccc1)c1ccccc1 (stereo not shown) [Example 3, 6-benzhydryl-11-hydroxy-5,6-dihydro-10H-[1,2,4]triazolo[5′,1′:3,4]pyrazino[1,2-b]pyridazin-10-one]	1400 nM	790 nM	1100 nM
O=c1ccn2c(c1O)-c1ncsc1CN2C(c1ccccc1)c1ccccc1 [Example 81, 5-benzhydryl-10-hydroxy-4,5-dihydro-9H-pyrido[1,2-b]thiazolo[4,5-d]pyridazin-9-one]	2200 nM		7000 nM
